Assay results taken from publication PMC10672241, “New Cyclopiane Diterpenes and Polyketide Derivatives from Marine Sediment-Derived Fungus Penicillium antarcticum KMM 4670 and Their Biological Activities” (Marine Drugs, 2023).
Where two headings read alike, the source gives them in different places.

How the values were obtained:
[1] = H9c2 cell viability (MTT) assay; format: cell-based, rat; conditions: rat, H9c2 cardiomyocytes, 24 h, MTT
Method: (§1) The rat cardiomyocytes H9c2 cells were kindly provided by Prof. Dr. Gunhild von Amsberg from Martini-Klinik Prostate Cancer Center, University Hospital Hamburg-Eppendorf, Hamburg, Germany.
(§2) The H9c2 cells were cultured in DMEM medium (Biolot, St. Petersburg, Russia) containing 10% fetal bovine serum (Biolot, St. Petersburg, Russia) and 1% penicillin/streptomycin (Biolot, St. Petersburg, Russia) at 37 °C in a humidified atmosphere with 5% (v/v) CO2.
(§3) The H9c2 cells were seeded at concentrations of 3 × 10^3 cell/well, and the experiments were started after 24 h. The compounds at concentrations up to 100 µM were added into the wells for 24 h, and the viability of the cells was measured with an MTT (3-(4,5-dimethylthiazol-2-yl)-2,5-diphenyltetrazolium bromide) assay, which was performed according to the manufacturer’s instructions (Sigma-Aldrich, Munich, Germany). All compounds were dissolved with DMSO so that the final concentration of DMSO in the cell culture was not more than 1%. Moreover, DMSO was used as a control. The results were presented as a percent of the control data and calculated IC50.

H9c2 cardiomyocytes = assay: H9c2 cell viability (MTT) assay; format: cell-based, rat; conditions: for Cell Viability: 24 h, MTT; for toxicity toward normal cardiomyocytes: at the concentrations in which they affected the growth of microorganisms
Method: as §1, §2, §3

[2] = system: Escherichia coli VKPM (B-7935); assay: Antimicrobial activity: E. coli growth (OD620, 96-well broth); format: cell-based
Method: (§4) The yeast-like fungi of Candida albicans KMM 455 and bacterial strains Staphylococcus aureus ATCC 21027 and Escherichia coli VKPM (B-7935) (Collection of Marine Microorganisms PIBOC FEB RAS) were cultured on solid medium Mueller Hinton broth with agar (16.0 g/L) in a Petri dish at 37 °C for 24 h.
(§5) The assays were performed in 96-well microplates in appropriate Mueller Hinton broth. Each well contained 90 µL of bacterial or of yeast-like fungi suspension (10^9 CFU/mL). Then, 10 µL of a compound diluted at concentrations from 1.5 µM to 100.0 µM using two-fold dilution were added (DMSO concentration <1%). Culture plates were incubated for 18 h at 37 °C, and the OD620 was measured using a Multiskan FS spectrophotometer (Thermo Scientific Inc., Beverly, MA, USA). The antibiotic gentamicin and the antifungal agent nitrofungin were used as positive controls at 1 mg/mL; 1% DMSO in PBS served as a negative control.

[3] = system: S. aureus biofilm formation; assay: Crystal violet biofilm formation assay, S. aureus; format: cell-based, Staphylococcus aureus; conditions: for IC50: Staphylococcus aureus, read-out: half-maximal concentration (IC50) of the biofilm formation inhibition; for prevention of the biofilm formation of S. aureus: concentration not given
Method: (§6) The inhibition reducing biofilm formation and growth was assessed using the crystal violet biofilm assay as described. Overnight cultures of bacteria S. aureus and E. coli and yeast-like fungi C. albicans were inoculated into Mueller–Hinton broth at a concentration of 10^9 CFU/mL. A total of 90µL of this cell suspension was then dispensed into 96-well microtiter plates containing 10 µL of different concentrations of compounds 1–6. After 24 h growth at 37 °C, the plates were washed with PBS to remove unbound cells. Next, the wells were stained with 0.1% crystal violet solution for 10 min at 37 °C. At the completion of the incubation, plates were washed 3 times with PBS and dried. Then, the crystal violet dye from the biofilm was solubilized with 100 µL of ethanol. A total of 100 µL of this solution was then moved to a new microtiter plate for absorbance measurement at λ = 570 nm. The results were reported as percent inhibition normalized to the wild-type control.

[4] = system: Staphylococcus aureus ATCC 21027; assay: Antimicrobial activity: S. aureus growth (OD620, 96-well broth); format: cell-based; conditions: for inhibition at 12.5 µM / inhibition at 100 µM: Staphylococcus aureus; for inhibition at 12.5 µM: ATCC21027, 12.5 µM; for inhibition at 100 µM: ATCC21027, 100 µM
Method: as §4, §5

sortase A from S. aureus = molecular target: T1, sortase A from S. aureus (Staphylococcus aureus, UniProt Q2FV99); assay: Sortase A activity inhibition assay (SensoLyte 520 kit, cell-free); format: biochemical; conditions: for inhibition at 50 µM: read-out: inhibition of sortase A activity, 50 µM, after 10 min of incubation; for inhibition of sortase A activity: 50 µM, after 10 min of incubation
T1 construct: purchased AnaSpec AS-72229
T1 sequence (Q2FV99 whole entry): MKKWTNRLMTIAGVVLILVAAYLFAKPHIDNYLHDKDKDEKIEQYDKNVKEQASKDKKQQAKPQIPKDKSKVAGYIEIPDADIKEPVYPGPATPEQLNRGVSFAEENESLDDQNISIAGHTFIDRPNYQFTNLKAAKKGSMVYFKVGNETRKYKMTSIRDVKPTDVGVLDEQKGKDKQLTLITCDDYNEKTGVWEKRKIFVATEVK
Method: The enzymatic activity of sortase A from S. aureus was determined using SensoLyte 520 Sortase A Activity Assay Kit Fluorimetric (AnaSpec AS-72229, AnaSpec, San Jose, CA, USA) in accordance with the manufacturer’s instructions. […] DMSO at a concentration of 0.8% was used as a control. 4-(Hydroxymercuri)benzoic acid (PCMB) was used as sortase A enzyme activity inhibitor. Fluorescence was measured with a plate reader PHERAStar FS (BMG Labtech, Offenburg, Germany) for 60 min, with a time interval of 5 min. The data were processed with MARS Data Analysis v. 3.01R2 (BMG Labtech, Offenburg, Germany). The results were presented as relative fluorescent units (RFUs) and percentage of the control data, calculated using STATISTICA 10.0 software.

Candida albicans KMM 455 = assay: Antimicrobial activity: C. albicans growth (OD620, 96-well broth); format: cell-based; conditions: for inhibition at 12.5 µM: KMM455, 12.5 µM
Method: as §4, §5

Escherichia coli [5] = system: Escherichia coli; design: method as in PMID 31226283; conditions: bacterial suspension 10^6 CFU per milliliter; cited from earlier work
Escherichia coli [6] = assay: Literature antibacterial activity against Escherichia coli; format: cell-based; conditions: calculated from 50 μg/mL
Staphylococcus aureus [7] = system: Staphylococcus aureus; design: method as in PMID 31226283; conditions: bacterial suspension 10^6 CFU per milliliter; cited from earlier work
Staphylococcus aureus [8] = assay: Literature antibacterial activity against Staphylococcus aureus; format: cell-based; conditions: calculated from 100 μg/mL
[9] = system: C. albicans biofilm formation; assay: Crystal violet biofilm formation assay, C. albicans; format: cell-based, Candida albicans; conditions: for inhibition of C. albicans biofilm formation: concentrations from 12.5 to 100 µM
Method: as §6

[10] = system: E. coli biofilm formation; assay: Crystal violet biofilm formation assay, E. coli; format: cell-based, Escherichia coli
Method: as §6

[11] = in vivo assay; cited from earlier work
[12] = concentrations from 12.5 to 100 µM

Structure (SMILES)	viability at 24 h, 1 µM [1] [%]	viability at 24 h, 10 µM [1] [%]	viability at 24 h, 100 µM [1] [%]	inhibition at 100 µM ([2]; Escherichia coli, 100 µM) [%]	prevention of S. aureus biofilm formation ([3]; 100 µM) [%]	inhibition at 12.5 µM [4] [%]	inhibition at 100 µM [4] [%]	inhibition at 50 µM (sortase A from S. aureus) [%]	inhibition of S. aureus growth ([4]; 12.5 µM)	inhibition at 12.5 µM ([2]; Escherichia coli, 12.5 µM) [%]	inhibition of C. albicans biofilm formation [9]	inhibition of C. albicans growth (Candida albicans KMM 455; [12])	further results
CC12CC(=O)C(C)(C)C1C1CCC3(C)C(=O)C=CC(C)(O)C13C2 (stereo not shown) [Compound 1, 4-hydroxyleptosphin C]	94.8 ± 5.9	65.7 ± 9.4	63.2 ± 0.5	35.9	34.5	15.3	29.3	28.2	–	–	–	–	decrease in H9c2 cell viability (H9c2 cardiomyocytes; 10 µM): ~30%; decrease of H9c2 viability (H9c2 cardiomyocytes; 100 µM): ~30%; inhibition of E. coli growth ([2]; 12.5 µM): not observed; prevention of S. aureus biofilm formation ([3]; 12.5 µM): 15.9%; inhibition at 12.5 µM (Candida albicans KMM 455; Candida albicans): 30.4%
CC1C=CC(=O)C2(C)CCC3C4C(C)(CC(O)C4(C)C)CC132 (stereo not drawn) [Compound 2, 13-epi-conidiogenone F]	98.1 ± 1.9	107 ± 7.8	–	27.3	52.6	–	19.1	–	no effect	–	–	–	decrease of H9c2 viability (H9c2 cardiomyocytes; 100 µM): ~30%; Cell Viability (H9c2 cardiomyocytes; 100 µM): 67.3 ± 3.1%; inhibition of E. coli growth ([2]; 12.5 µM): not observed; prevention of S. aureus biofilm formation ([3]; 12.5 µM): 37.9%; IC50 [3]: 76.1 µM; inhibition of sortase A activity (sortase A from S. aureus): 36.9%; inhibition at 12.5 µM (Candida albicans KMM 455; Candida albicans): 27.9%
CC1C=CC(=O)C2(C)CCC3C4C(C)(CC(O)C4(C)C)CC132 (stereo not shown) [Compound 3, conidiogenone F]	–	–	–	–	–	–	–	–	did not influence	24.3	–	–	concentration of antibacterial activity against Escherichia coli (Escherichia coli [5]): 50 µg/mL; Cell Viability (H9c2 cardiomyocytes; 1 µM): 103.3 ± 3.2%; Cell Viability (H9c2 cardiomyocytes; 10 µM): 92.9 ± 2.5%; Cell Viability (H9c2 cardiomyocytes; 100 µM): 109.7 ± 9.2%; inhibition of E. coli growth ([2]; 100 µM): 36.4%; prevention of S. aureus biofilm formation ([3]; only at concentrations of 50 µM and 100 µM): 10–15%; inhibition of S. aureus growth ([4]; 100 µM): 17.6%; concentration at which activity was recorded (E. coli) (Escherichia coli [6]): 166 µM; inhibition of sortase A activity (sortase A from S. aureus): 13.1%; inhibition of C. albicans growth (Candida albicans KMM 455; 12.5 µM): 26.5%; concentration of antibacterial activity against Staphylococcus aureus (Staphylococcus aureus [7]): > 100 µg/mL
CC1C=CC(=O)C2(C)CCC3C4C(C)(CC(=O)C4(C)C)CC132 (stereo not shown) [Compound 4, leptosphin C]	107 ± 2.9	102 ± 4.6	92.3 ± 1.9	41.7	54.5	10.3	42.4	20	–	7.2	30.6–36.4%	38.7–44.8%	concentration of antibacterial activity against Escherichia coli (Escherichia coli [5]): > 100 µg/mL; IC50 ([3]; S. aureus biofilm): 85.5 µM; concentration at which activity was recorded (S. aureus) (Staphylococcus aureus [8]): 333 µM; effect on biofilm formation by C. albicans (in words) [9]: affected the biofilm formation; concentration of antibacterial activity against Staphylococcus aureus (Staphylococcus aureus [7]): 100 µg/mL; effect on biofilm formation of E. coli (in words) [10]: affect the biofilm formation; prevention of E. coli biofilm formation ([10]; concentrations of 25–100 µM): 30–40%
C[C@H]1CCC[C@H](C[C@@H](O)CC(=O)O)O1 [Compound 5, antaketide A]	94.4 ± 3.1	88.5 ± 3.1	74.1 ± 4.9	40.9	–	–	48.5	25.5	did not show any influence	12.5	did not affect	36.2–48.4%	toxicity toward normal cardiomyocytes (H9c2 cardiomyocytes): significant toxicity; prevention of the biofilm formation of S. aureus [3]: 30–40%; effect on biofilm formation of E. coli (in words) [10]: affect the biofilm formation; prevention of E. coli biofilm formation ([10]; concentrations of 12.5–100 µM, respectively): 21–45%
C[C@H]1CCC[C@H](CC(=O)O)O1 [Compound 6, 2-((2R,6S)-6-methyltetrahydro-2H-pyran-2-yl)acetic acid]	98.1 ± 1.6	80.9 ± 2.9	54.6 ± 2.1	56.9	–	25.6	46.5	16.8	–	27.7	14.7–23.1%	34.7-52.1%	toxicity toward normal cardiomyocytes (H9c2 cardiomyocytes): significant toxicity; IC50 ([2]; Escherichia coli, read-out: IC50 of E. coli growth inhibition): 84.9 µM; prevention of the biofilm formation of S. aureus [3]: 30–40%; effect on biofilm formation by C. albicans (in words) [9]: affected the biofilm formation; IC50 (Candida albicans KMM 455; Candida albicans, KMM455): 89.9 µM
C[C@H]1CCC[C@H](C[C@H]2Cc3cc(O)cc(O)c3C(=O)O2)O1 [Compound 7, cladosporin]	–	–	–	–	–	–	–	–	–	–	–	–	clearance rate in the body [11]: high; oral bioavailability [11]: poor
